Test results as given in article PMC7580722, “Design of new disubstituted imidazo[1,2-b]pyridazine derivatives as selective Haspin inhibitors. Synthesis, binding mode and anticancer biological evaluation” (Journal of Enzyme Inhibition and Medicinal Chemistry, 2020).
pEC50, pIC50: −log10 of the molar value. Read-outs that look alike come from different tables or passages of the source.

Columns and labels:
Haspin = tested on: Haspin; parameters: method as in PMID 23071153, PMID 23071152, PMID 21804608, PMID 19734450, PMID 18978305; settings: Figure 1, known Haspin inhibitors; cited from earlier work
HsHaspin = target: T1, HsHaspin (Homo sapiens, UniProt Q8TF76); assay: Recombinant Haspin kinase assay ([γ-33P]ATP, 15 µM ATP; some values ADP-Glo); format: biochemical; settings: for pIC50 / Haspin inhibitory activity (in words): recombinant HsHaspin; for pIC50: in vitro
T1 construct: aa470-798; made in house; host or cells: E. coli
T1 sequence (Q8TF76 470-798): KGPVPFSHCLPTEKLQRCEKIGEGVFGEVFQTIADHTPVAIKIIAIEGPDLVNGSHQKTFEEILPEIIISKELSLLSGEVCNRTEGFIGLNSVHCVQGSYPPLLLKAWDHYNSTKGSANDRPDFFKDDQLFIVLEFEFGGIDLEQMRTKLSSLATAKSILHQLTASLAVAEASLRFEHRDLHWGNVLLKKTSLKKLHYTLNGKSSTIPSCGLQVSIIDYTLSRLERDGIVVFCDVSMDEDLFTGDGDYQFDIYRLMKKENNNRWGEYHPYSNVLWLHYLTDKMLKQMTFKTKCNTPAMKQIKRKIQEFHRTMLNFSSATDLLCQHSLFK
Experimental: (§1) Values are IC50 expressed in µM and calculated from dose–response curves (each point on the curves was performed in triplicate). Selectivity indexes (SI; in brackets) are calculated as follows: SI = IC50 kinase X/IC50 Haspin. ND: not determined. *IC50 values obtained using the ADP-Glo methodology (see Experimental section, Supplementary Material). […]
(§2) A, HsCdk9/Cyclin T). Native SscCK1δ /ε and SscGSK3α/β were purified from pig brain whereas HsPlk1, HsCdk1 and HsAurora B were purchased from ProQinase and SignalChem respectively. Kinase assays were performed in […]
(§3) mCi/ml; PerkinElmer) in a final volume of 30 µl as previously reported 51. After 30 min incubation at 30°C, the reaction mix was spotted onto GE healthcare P81 phosphocellulose paper using a FilterMate Harvester (PerkinElmer), and the filter was extensively washed with a 1% phosphoric acid solution. The wet filter-bound radioactivity was determined in the presence of 20 µl scintillation fluid (GE healthcare) with a TopCount® Scintillation and Luminescence Counter (PerkinElmer). IC50 values were calculated from dose-response curves […]
(§4) Kinase activities using the ADP-Glo methodology (ADP-Glo Kinase Assay; Promega) were assayed according to the assay described in Nguyen et al. 52 and Ibrahim et al. 53. […]

HsAurora B = target: T2, HsAurora B (Homo sapiens, UniProt Q96GD4); assay: Aurora B kinase assay; format: biochemical
T2 construct: purchased SignalChem
Experimental: as §1
Recombinant protein kinases were expressed and purified from E. coli (HsHaspin kinase domain aa470-798, HsCdk5/p25, RnDYRK1A kinase domain aa1-499, HsPIM1, MmCLK1) or baculovirus/Sf9 cells (HsCdk2/Cyclin A, HsCdk9/Cyclin T). Native SscCK1δ /ε and SscGSK3α/β were purified from pig brain whereas HsPlk1, HsCdk1 and HsAurora B were purchased from ProQinase and SignalChem respectively. Kinase assays were performed in specific buffers and substrates for each kinase tested in the presence of 15 µM [γ-33P] ATP (3,000 Ci/mmol, 10 mCi/ml; PerkinElmer) in a final volume of 30 µl as previously reported 51. After 30 min incubation at 30°C, the reaction mix was spotted onto GE healthcare P81 phosphocellulose paper using a FilterMate Harvester (PerkinElmer), and the filter was extensively washed with a 1% phosphoric acid solution. The wet filter-bound radioactivity was determined in the presence of 20 µl scintillation fluid (GE healthcare) with a TopCount® Scintillation and Luminescence Counter (PerkinElmer). IC50 values were calculated from dose-response curves […]
as §4

HsCDK1 = target: T3, HsCDK1 (Homo sapiens, UniProt P06493); assay: CDK1 kinase assay; format: biochemical; settings: for SI CDK1/Haspin: SI = IC50 CDK1/IC50 Haspin; for pIC50: Table 4, read-out: IC50 HsCDK1
T3 construct: purchased ProQinase
Experimental: We therefore tested our compounds on two obvious candidates, HsCDK1 and HsPLK1 (Polo-like_kinase 1) both required for mitotic entry[50]
(§5) Values are IC50 expressed in µM and calculated from dose–response curves (each point from the curves was performed in duplicate). NR: not relevant. […]
(§6) Recombinant protein kinases were expressed and purified from E. coli (HsHaspin kinase domain aa470-798, HsCdk5/p25, RnDYRK1A kinase domain aa1-499, HsPIM1, MmCLK1) or baculovirus/Sf9 cells (HsCdk2/Cyclin A, HsCdk9/Cyclin T). Native SscCK1δ /ε and SscGSK3α/β were purified from pig brain whereas HsPlk1, HsCdk1 and HsAurora B were purchased from ProQinase and SignalChem respectively. Kinase assays were performed in specific buffers and substrates for each kinase tested in the presence of 15 µM [γ-33P] ATP (3,000 Ci/mmol, 10 mCi/ml; PerkinElmer) in a final volume of 30 µl as previously reported 51. After 30 min incubation at 30°C, the reaction mix was spotted onto GE healthcare P81 phosphocellulose paper using a FilterMate Harvester (PerkinElmer), and the filter was extensively washed with a 1% phosphoric acid solution. The wet filter-bound radioactivity was determined in the presence of 20 µl scintillation fluid (GE healthcare) with a TopCount® Scintillation and Luminescence Counter (PerkinElmer). IC50 values were calculated from dose-response curves

HsPLK1 = target: T4, HsPLK1 (Homo sapiens, UniProt P53350); assay: PLK1 kinase assay; format: biochemical; settings: Table 4
T4 construct: purchased ProQinase
Experimental: . We therefore tested our compounds on two obvious candidates, HsCDK1 and HsPLK1 (Polo-like_kinase 1) both required for mitotic entry[50] (Table 4).
as §5, §6

RPE-1 = assay: Cell viability, monolayer (2D), MTS assay; format: cell-based; settings: Homo sapiens, 48 h
U-2 OS = assay: Cell viability, monolayer (2D), MTS assay; format: cell-based; settings: Homo sapiens, U2OS, 48 h
SH-SY5Y = assay: Cell viability, monolayer (2D), MTS assay; format: cell-based; settings: Homo sapiens, 48 h
HCT116 = assay: Cell viability, monolayer (2D), MTS assay; format: cell-based; settings: Homo sapiens, HCT-116, 48 h
HBL100 = assay: Cell viability, monolayer (2D), MTS assay; format: cell-based; settings: Homo sapiens, HBL-100, 48 h
U-2 OS spheroids = assay: Spheroid (3D) viability, CellTiter-Glo; format: cell-based, human; settings: 5 µM; for viability at 5 µM: Homo sapiens, U2OS
HCT116 spheroids = assay: Spheroid (3D) viability, CellTiter-Glo; format: cell-based, human; settings: 5 µM, 10 days, Figure 4(A)
HBL100 spheroids = assay: Spheroid (3D) viability, CellTiter-Glo; format: cell-based, human; settings: Figure 4(A)
[1] = tested on: Haspin activity (H3T3ph) in U-2 OS cells; assay: In-cell Haspin activity, H3T3ph immunofluorescence; format: cell-based, human; settings: 24 h; for H3T3ph signal remaining in prometaphase cells (% of ctrl): 0.5 µM
U-2 OS cells [2] = assay: Scratch wound cell migration assay (IncuCyte); format: cell-based, human; settings: 0.6 µM, 0.5% FBS, normalised against DMSO control (100%)
U-2 OS cells [3] = assay: Cell cycle analysis by flow cytometry (propidium iodide); settings: 2.5 µM, 24 h, U-2 OS
HsCdk2/Cyclin A = target: T5, HsCdk2/Cyclin A (Homo sapiens, UniProt P24941); assay: CDK2 kinase assay; format: biochemical; settings: read-out: IC50 CDK2
T5 construct: made in house; host or cells: baculovirus/Sf9 cells
Experimental: as §1, §2, §3, §4

T3 sequence (P06493 whole entry): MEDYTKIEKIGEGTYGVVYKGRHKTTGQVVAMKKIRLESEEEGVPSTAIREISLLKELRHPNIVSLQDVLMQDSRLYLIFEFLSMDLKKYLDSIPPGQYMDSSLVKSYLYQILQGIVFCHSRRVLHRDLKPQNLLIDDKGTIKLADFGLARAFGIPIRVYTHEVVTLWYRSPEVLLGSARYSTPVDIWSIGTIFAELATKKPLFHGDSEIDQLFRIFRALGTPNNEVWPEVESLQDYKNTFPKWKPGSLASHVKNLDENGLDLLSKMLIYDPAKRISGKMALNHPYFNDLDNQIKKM
T3 sequence (P14635 whole entry partner): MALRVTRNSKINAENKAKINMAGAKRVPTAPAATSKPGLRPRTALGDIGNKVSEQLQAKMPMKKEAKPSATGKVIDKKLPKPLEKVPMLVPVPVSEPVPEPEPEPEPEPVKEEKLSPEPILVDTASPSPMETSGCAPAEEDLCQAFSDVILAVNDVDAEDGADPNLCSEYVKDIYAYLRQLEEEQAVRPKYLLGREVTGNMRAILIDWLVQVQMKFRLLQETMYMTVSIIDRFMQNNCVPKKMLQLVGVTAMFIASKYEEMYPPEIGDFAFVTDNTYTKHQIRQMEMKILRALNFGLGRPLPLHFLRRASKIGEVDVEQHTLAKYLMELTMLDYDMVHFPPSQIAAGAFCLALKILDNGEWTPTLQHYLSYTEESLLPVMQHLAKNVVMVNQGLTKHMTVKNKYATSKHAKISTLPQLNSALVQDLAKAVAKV
T4 sequence (P53350 whole entry): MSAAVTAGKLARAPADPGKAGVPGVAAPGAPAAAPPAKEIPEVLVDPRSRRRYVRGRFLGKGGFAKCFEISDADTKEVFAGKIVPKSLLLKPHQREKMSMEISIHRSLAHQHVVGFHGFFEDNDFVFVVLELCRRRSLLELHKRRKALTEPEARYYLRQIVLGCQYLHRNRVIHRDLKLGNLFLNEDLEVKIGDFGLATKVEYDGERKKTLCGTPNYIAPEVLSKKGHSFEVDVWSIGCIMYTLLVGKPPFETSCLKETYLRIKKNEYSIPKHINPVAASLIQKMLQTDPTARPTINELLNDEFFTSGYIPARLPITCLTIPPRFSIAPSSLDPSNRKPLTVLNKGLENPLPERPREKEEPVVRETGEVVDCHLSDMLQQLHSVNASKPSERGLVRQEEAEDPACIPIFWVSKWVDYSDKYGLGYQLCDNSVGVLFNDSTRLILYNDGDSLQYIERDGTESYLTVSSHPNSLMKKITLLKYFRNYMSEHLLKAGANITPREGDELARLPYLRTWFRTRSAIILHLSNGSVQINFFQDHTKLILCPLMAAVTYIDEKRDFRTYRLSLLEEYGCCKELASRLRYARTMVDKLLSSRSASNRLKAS
T2 sequence (Q96GD4 whole entry): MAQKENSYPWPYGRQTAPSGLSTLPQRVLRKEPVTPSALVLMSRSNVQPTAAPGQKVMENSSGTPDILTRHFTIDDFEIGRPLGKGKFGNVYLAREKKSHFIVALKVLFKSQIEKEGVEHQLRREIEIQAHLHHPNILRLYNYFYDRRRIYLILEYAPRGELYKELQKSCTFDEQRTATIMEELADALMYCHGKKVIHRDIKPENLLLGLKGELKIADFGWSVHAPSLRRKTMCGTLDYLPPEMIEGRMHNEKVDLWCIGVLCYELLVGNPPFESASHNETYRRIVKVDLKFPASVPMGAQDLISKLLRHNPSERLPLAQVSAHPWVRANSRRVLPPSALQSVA

c1cc2[nH]ncc2cc1-c1cnc2ccc(NC3CCCC3)nn12 [Compound 9] showed a pIC50 (HsHaspin) of 7.51 and a melting point of 195 to 197 °C.
For c1cc2[nH]ncc2cc1-c1cnc2ccc(NC3CCCCC3)nn12 [Compound 10], the melting point was 240 to 242 °C.
Compound c1cc2[nH]ncc2cc1-c1cnc2ccc(N3CCCCC3)nn12 [Compound 11] has a melting point of 231 to 233 °C.
CCCOc1ccc2ncc(-c3ccc4[nH]ncc4c3)n2n1 [Compound 13] showed a melting point of 198 to 200 °C.
For CCOc1ccc2ncc(-c3ccc4[nH]ncc4c3)n2n1 [Compound 14], the “average SI” value (HsHaspin; average selectivity index over the protein kinases tested vs Haspin) was 23.6, the pIC50 (HsHaspin) was 7.16 and the “Aurora B inhibition (in words)” value (HsAurora B) was “did not inhibit Aurora B kinase”. For the same compound, the “SI CDK1/Haspin” value (HsCDK1) was 11.5, the pIC50 (HsCDK1) was 6.10 and the pIC50 (HsPLK1) was < 5.00. For the same compound, the pEC50 (RPE-1) was 5.43, the pEC50 (U-2 OS) was 5.55 and the pEC50 (SH-SY5Y) was < 5.00. The pEC50 (HCT116) was 5.77, the pEC50 (HBL100) was 5.02 and the viability at 5 µM (U-2 OS spheroids; 48 h, 2 days, Figure 4(B), read-out: U-2 OS spheroid remaining viability) was 6.9%. For the same compound, the viability at 5 µM (U-2 OS spheroids; 240 h, 10 days, Figure 4(A), read-out: U-2 OS spheroid viability (% of DMSO control)) was 5%, the viability at 5 µM (U-2 OS spheroids; 48 h, Figure 4(A), read-out: U-2 OS spheroid viability (% of DMSO control)) was 33% and the HCT116 spheroid viability (HCT116 spheroids) was “remained mostly unresponsive”. For the same compound, the HBL100 spheroid viability (HBL100 spheroids; 5 µM, 10 days) was “remained mostly unresponsive”, the viability at 5 µM (HBL100 spheroids; Homo sapiens, HBL-100, 48 h, read-out: HBL-100 spheroid viability (% of DMSO control)) was 73% and the “H3T3ph signal remaining in prometaphase cells (% of ctrl)” value [1] was 11.9%. The “normalised wound closure after 24 h” value (U-2 OS cells [2]) was 73%, the melting point was 205 to 207 °C and the “cells in G2/M phase (% of cell total population)” value (U-2 OS cells [3]; DMSO control 12.8%) was 24.4%. The “cells in S phase (% of cell total population)” value (U-2 OS cells [3]; DMSO control 51.9%) was 45.2%.
With c1cc2[nH]ncc2cc1-c1cnc2ccc(OC[C@H]3CNCCO3)nn12 [Compound 22] the pIC50 (HsHaspin) was 7.92, the pIC50 (HsCdk2/Cyclin A) was 5.28 and the “SI CDK1/Haspin” value (HsCDK1) was 239. For the same compound, the pIC50 (HsCDK1) was 5.54, the pIC50 (HsPLK1) was < 5.00 and the pEC50 (RPE-1) was 5.22. For the same compound, the pEC50 (U-2 OS) was 5.07, the pEC50 (SH-SY5Y) was < 5.00 and the pEC50 (HCT116) was < 5.00. The pEC50 (HBL100) was < 5.00, the “U-2 OS spheroid remaining viability” value (U-2 OS spheroids; 2 days, Figure 4(B)) was “no effects” and the “H3T3ph signal remaining in prometaphase cells (% of ctrl)” value [1] was 10.7%. The inhibition at 0.05 µM ([1]; Homo sapiens, U2OS, 0.05 µM, read-out: inhibition of cellular Haspin activity) was > 80% and the “normalised wound closure after 24 h” value (U-2 OS cells [2]) was “around 100%”.
In the case of c1cc2[nH]ncc2cc1-c1cnc2ccc(OC[C@@H]3COCCN3)nn12 [Compound 23], the pIC50 (HsHaspin) was 7.60.
c1cc2[nH]ncc2cc1-c1cnc2ccc(OC[C@H]3COCCN3)nn12 [Compound 24] showed a pIC50 (HsHaspin) of 7.70.
In the case of c1cc2[nH]ncc2cc1-c1cnc2ccc(OCC3CCCN3)nn12 (stereo not shown) [Compound 25], the “Haspin inhibitory activity (in words)” value (HsHaspin) was “very active”.
For c1cc2[nH]ncc2cc1-c1cnc2ccc(OCC3CCCN3)nn12 (stereo not shown) [Compound 26], the “Haspin inhibitory activity (in words)” value (HsHaspin) was “very active”.
With CCCNc1ccc2ncc(-c3cnc(N)nc3)n2n1 [Compound 28, 3-(2-Aminopyrimidin-5-yl)-6-(propylamino)imidazo[1,2-b]pyridazine] the “Aurora B inhibition at 10 µM (in words)” value (HsAurora B) was “did not affect this enzyme at 10 µM”.
For CCCNc1ccc2ncc(-c3cccc4ccccc34)n2n1 [Compound 29, 3-(Naphthalen-1-yl)-N-propylimidazo[1,2-b]pyridazin-6-amine], the pIC50 (HsCDK1) was < 5.00, the pIC50 (HsPLK1) was < 5.00 and the pEC50 (RPE-1) was < 5.00. The pEC50 (U-2 OS) was < 5.00, the pEC50 (SH-SY5Y) was < 5.00 and the pEC50 (HCT116) was < 5.00. For the same compound, the pEC50 (HBL100) was < 5.00 and the “normalised wound closure after 24 h” value (U-2 OS cells [2]) was “around 100%”.
With c1cnn2c(-c3ccc4[nH]ncc4c3)cnc2c1 [Compound 30, 3-(1H-Indazol-5-yl)imidazo[1,2-b]pyridazine] the “Haspin inhibitory activity (in words)” value (HsHaspin) was “lost their activity for Haspin” and the “Aurora B inhibition at 10 µM (in words)” value (HsAurora B) was “did not affect this enzyme at 10 µM”.
In the case of COc1ccc2c(c1)[nH]c1c(C)nccc12 [Harmine], the pIC50 (Haspin) is listed as 6.23.
In the case of COc1ccc2c3ccnc(C(F)(F)F)c3n(CCCCN)c2c1 [LDN-211898], the pIC50 (Haspin) is given as 7.00.
In the case of CN1CCC(CNc2ccc3ncc(-c4cccc(OC(F)(F)F)c4)n3n2)CC1 [SGI-1776], the pIC50 (Haspin) is given as 7.47.
